The test system of test [1] is SOD1 G93A transgenic mice (ALS model mice). Briefly: ALS model mice, continuous intracerebroventricular administration (rotarod onset, survival, motor neuron count). Type of test: in vivo, mouse. On the procedure:
Wild-type mice (C57BL/6) and SOD1 G93A transgenic mice (G1L/+ line, backcrossed to C57BL/6) were purchased from The Jackson Laboratory, and were then mated and/or bred. All assays were carried out using only male mice.
Using Brain infusion kit 3 (Alzet) and an osmotic pump (Model 2006, Alzet), the compound was continuously administered into the cerebral ventricle of the SOD1 G93A transgenic mice (average onset: 28.1+1.3-week-old (Nishitoh et al., Genes Dev 22, 1451-1464, 2008)), from the time at which the mice were 22 weeks old (0.15 μL/h, 6 weeks/pump). As a preparation stage, 50% DMSO/PBS or each compound was filled into the pump, and was then immersed in 0.9% NaCl, so that priming was carried out 37° C. for 60 hours or more. Upon installation of the pump, the mice were anesthetized by intraperitoneal administration of 0.01 μL/g xylazine (1 mg/ml, Sigma) and 0.007 μL/g Pentobarbital Sodium Salt (5.4 mg/ml, Nacalai). The head portion of each mouse was dehaired, and the mouse was then fixed on a stereotaxic instrument equipped with a manipulator (NARISHIGE). Thereafter, the skin was cut, and the skull was exposed. The coordinate of Bregma was set at 0, and the position that was 1.1 mm to the right, 0.5 mm backward, and 2.5 mm downward was set at the coordinate of the administered cerebral ventricle. The pump was arranged under the dorsal skin, a cannula was then fixed using an adhesive, and the skin on the head portion of the mouse was closed using the adhesive. The pump was exchanged with a new one every 6 weeks, until it became difficult to perform surgery due to the onset of the pathologic conditions of ALS. Upon the exchange of the pump, the mouse was anesthetized, using 4% Isoflurane (Wako Pure Chemical Industries, Ltd.) for introduction, and 2% Isoflurane for maintenance. The dorsal surface of the pump-inserted site was dehaired, and the skin was excised to remove the pump. The removed pump was exchanged with a new pump that had previously been filled with 50% DMSO/PBS or each compound. After the exchange of the pump, the excised skin was closed with Wound clip (Alzet).
From the week at which the mice became 25 weeks old, motor function was measured three times a week according to a rotarod test. ROTA-ROD (Muromachi Kikai Co., Ltd.) was set at a reached rotation speed of 40 rpm and an acceleration time of 180 seconds. The period of time required until the target mouse was fallen during 300 seconds at longest was recorded. An interval of 180 seconds was provided between two trials. Two measurements were carried out in each trial, and better results were determined to be the results of the day. An average value in a week was calculated. […]
On the technique in general: The rotarod test checks motor coordination on a turning rod.

In test [2] the target is T1, complex formation by Derlin-1 (Homo sapiens, UniProt Q9BUN8).
T1 sequence (Q9BUN8 1-251): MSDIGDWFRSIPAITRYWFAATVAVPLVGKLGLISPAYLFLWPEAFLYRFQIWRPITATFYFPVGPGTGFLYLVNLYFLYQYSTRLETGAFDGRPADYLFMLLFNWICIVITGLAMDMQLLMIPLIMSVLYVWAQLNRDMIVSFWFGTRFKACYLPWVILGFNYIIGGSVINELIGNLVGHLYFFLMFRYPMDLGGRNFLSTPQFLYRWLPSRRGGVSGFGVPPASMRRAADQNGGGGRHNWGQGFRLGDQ
Briefly: Inhibition of complex formation by Derlin-1. Particulars: under conditions for inhibiting the binding between mutant SOD1 and Derlin-1. Type of test: cell-based. From the text: (§1) In the above-described SOD1-Derlin-1-binding inhibition experiment, SOD1 G93A that is a representative mutant SOD1 associated with the onset of the pathologic conditions of ALS was used. According to previous studies, however, it has become clear that 122 types of ALS-related mutant SOD1s bind to Derlin-1 (Fujisawa et al., Ann Neurol 72, 739-749, (2012)).

A further test has as its target dimerization of SOD1 (Homo sapiens, UniProt P00441). The test can be described thus: Inhibition of dimerization of SOD1. Type of test: cell-based. Particulars: under conditions for inhibiting the binding between mutant SOD1 and Derlin-1.
Description: as §1

Sequence of dimerization of SOD1 (P00441 whole entry): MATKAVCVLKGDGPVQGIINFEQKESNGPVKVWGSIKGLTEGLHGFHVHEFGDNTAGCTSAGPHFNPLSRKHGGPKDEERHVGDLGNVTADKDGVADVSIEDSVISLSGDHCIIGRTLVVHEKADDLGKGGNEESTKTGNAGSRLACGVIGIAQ

Consider `C=CCN(C(=O)c1sc2nc(-c3cccnc3)ccc2c1N)c1ccccc1` [Example 1, N-allyl-3-amino-N-phenyl-6-(3-pyridinyl)thieno[2,3-b]pyridine-2-carboxamide], for which, in test [1] (SOD1 G93A transgenic mice), the “Effects on model mice” value was “Significant effects”. Further, the “number of motor neurons in spinal cord (Nissl staining)” value in test [1] (SOD1 G93A transgenic mice, 31 weeks old, lumbar cord anterior horn, vs DMSO group, FIG. 11, 12) was “the number of motor neurons was significantly high”. Moreover, the “period of time required until the onset of the pathologic conditions (Onset), rotarod test” value in test [1] (male SOD1 G93A transgenic mice, 3 mM continuous i.c.v. by osmotic pump from 22 weeks old, vs DMSO, FIG. 10A) is recorded as “the onset was significantly delayed”. Further, in test [1] (male SOD1 G93A transgenic mice, 3 mM continuous i.c.v. by osmotic pump from 22 weeks old, vs DMSO, FIG. 10B), the “effect of extending the survival period (Survival)” value was “approximately 14%”. For the same molecule, the “inhibitory activity on complex formation by Derlin-1” value in test [2] was “did not exhibit inhibitory activity”. The “inhibitory activity on dimerization of SOD1” value at dimerization of SOD1 is on record as “did not exhibit inhibitory activity”.

For the origin of these results see patent US10689394B2, “Thieno[2,3-b]pyridine derivative, quinoline derivative, and use thereof” (The University of Tokyo, priority 2016, dated 2020).
